Assay results taken from PubChem BioAssay (NCI).
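Step 1: Grow cells in 96-well plates. Step 2: Expose to compound for 48 hours at 5 concentrations. Step 3: Interpolate endpoints linearly; if unreached, use highest concentration. The concentration for full growth arrest is given as TGI.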

Columns and labels:
Test in all cases: NCI tumour cell line growth inhibition, 48 h
SK-MEL-5 melanoma = system: SK-MEL-5 melanoma
IGROV1 ovarian = system: IGROV1 ovarian
MDA-MB-231 breast = system: MDA-MB-231 breast
HL-60(TB) leukemia = system: HL-60(TB) leukemia
HCT-116 colon = system: HCT-116 colon
PC-3 prostate = system: PC-3 prostate
HCT-15 colon = system: HCT-15 colon
MOLT-4 leukemia = system: MOLT-4 leukemia
OVCAR-5 ovarian = system: OVCAR-5 ovarian
BT-549 breast = system: BT-549 breast
HOP-92 NSCLC = system: HOP-92 NSCLC
UACC-257 melanoma = system: UACC-257 melanoma
KM12 colon = system: KM12 colon
RPMI-8226 leukemia = system: RPMI-8226 leukemia
A549 NSCLC = system: A549 NSCLC
SNB-19 CNS = system: SNB-19 CNS
CAKI-1 renal = system: CAKI-1 renal
HS 578T breast = system: HS 578T breast
NCI-H23 lung = system: NCI-H23 lung
ACHN renal = system: ACHN renal
SF-268 CNS = system: SF-268 CNS
A498 renal = system: A498 renal
SK-MEL-2 melanoma = system: SK-MEL-2 melanoma
786-0 renal = system: 786-0 renal
HT29 colon = system: HT29 colon
HOP-62 NSCLC = system: HOP-62 NSCLC
MCF7 breast = system: MCF7 breast
NCI-H226 lung = system: NCI-H226 lung
UO-31 renal = system: UO-31 renal
NCI/ADR-RES ovarian = system: NCI/ADR-RES ovarian
M14 melanoma = system: M14 melanoma
HCC-2998 colon = system: HCC-2998 colon
EKVX NSCLC = system: EKVX NSCLC
SNB-75 CNS = system: SNB-75 CNS
T-47D breast = system: T-47D breast
COLO 205 colon = system: COLO 205 colon
OVCAR-3 ovarian = system: OVCAR-3 ovarian
NCI-H460 lung = system: NCI-H460 lung
MDA-MB-435 = system: MDA-MB-435
SW-620 colon = system: SW-620 colon
CCRF-CEM leukemia = system: CCRF-CEM leukemia
SK-OV-3 ovarian = system: SK-OV-3 ovarian
SF-539 CNS = system: SF-539 CNS
DU-145 prostate = system: DU-145 prostate
MDA-N = system: MDA-N
SK-MEL-28 melanoma = system: SK-MEL-28 melanoma
SF-295 CNS = system: SF-295 CNS
MALME-3M melanoma = system: MALME-3M melanoma
LOX IMVI melanoma = system: LOX IMVI melanoma
OVCAR-4 ovarian = system: OVCAR-4 ovarian
SR leukemia = system: SR leukemia
TK-10 renal = system: TK-10 renal
NCI-H522 lung = system: NCI-H522 lung
UACC-62 melanoma = system: UACC-62 melanoma
OVCAR-8 ovarian = system: OVCAR-8 ovarian
U251 CNS = system: U251 CNS
RXF 393 renal = system: RXF 393 renal
K-562 leukemia = system: K-562 leukemia
SN12C renal = system: SN12C renal

Work on `C=C[C@@]1(C)CC2(C=C(CO)C(O)O2)Oc2c1c(=O)oc1cccc(C)c21` (stereo partly drawn) yielded a TGI (SK-MEL-5 melanoma) of 25.3 µM, a TGI (IGROV1 ovarian) of 18.4 µM and a TGI (MDA-MB-231 breast) of 23.9 µM. The TGI (HL-60(TB) leukemia) was 5.12 µM, the TGI (HCT-116 colon) was 3.65 µM and the TGI (PC-3 prostate) was 32.7 µM. For the same compound, the TGI (HCT-15 colon) was 7.17 µM, the TGI (MOLT-4 leukemia) was 5.78 µM and the TGI (OVCAR-5 ovarian) was 36 µM. The TGI (BT-549 breast) was 14.2 µM, the TGI (HOP-92 NSCLC) was 40.2 µM and the TGI (UACC-257 melanoma) was 35 µM. The TGI (KM12 colon) was 33.9 µM, the TGI (RPMI-8226 leukemia) was 3.82 µM and the TGI (A549 NSCLC) was 68.7 µM. For the same compound, the TGI (SNB-19 CNS) was 33.2 µM, the TGI (CAKI-1 renal) was 15.6 µM and the TGI (HS 578T breast) was 42.9 µM. The TGI (NCI-H23 lung) was 21.3 µM, the TGI (ACHN renal) was 21.2 µM and the TGI (SF-268 CNS) was 12.2 µM. For the same compound, the TGI (A498 renal) was 51.8 µM, the TGI (SK-MEL-2 melanoma) was 21.7 µM and the TGI (786-0 renal) was 3.8 µM. For the same compound, the TGI (HT29 colon) was 21.9 µM, the TGI (HOP-62 NSCLC) was 33.8 µM and the TGI (MCF7 breast) was 25.1 µM. The TGI (NCI-H226 lung) was 35.5 µM, the TGI (UO-31 renal) was 19 µM and the TGI (NCI/ADR-RES ovarian) was 10.2 µM. For the same compound, the TGI (M14 melanoma) was 12.1 µM, the TGI (HCC-2998 colon) was 40.1 µM and the TGI (EKVX NSCLC) was 35.2 µM. For the same compound, the TGI (SNB-75 CNS) was 28.8 µM, the TGI (T-47D breast) was 44.6 µM and the TGI (COLO 205 colon) was 26.9 µM. It also gave a TGI (OVCAR-3 ovarian) of 9.66 µM, a TGI (NCI-H460 lung) of 45.2 µM and a TGI (MDA-MB-435) of 10.3 µM. It also gave a TGI (SW-620 colon) of 3.74 µM, a TGI (CCRF-CEM leukemia) of 7.98 µM and a TGI (SK-OV-3 ovarian) of 47.3 µM. For the same compound, the TGI (SF-539 CNS) was 12 µM, the TGI (DU-145 prostate) was 29.1 µM and the TGI (MDA-N) was 15.2 µM. It also gave a TGI (SK-MEL-28 melanoma) of 25.5 µM, a TGI (SF-295 CNS) of over 75.1 µM and a TGI (MALME-3M melanoma) of 26.7 µM. For the same compound, the TGI (LOX IMVI melanoma) was 13.7 µM, the TGI (OVCAR-4 ovarian) was 12.8 µM and the TGI (SR leukemia) was 7.75 µM. For the same compound, the TGI (TK-10 renal) was 43.5 µM, the TGI (NCI-H522 lung) was 4.82 µM and the TGI (UACC-62 melanoma) was 23.1 µM. The TGI (OVCAR-8 ovarian) was 9.72 µM, the TGI (U251 CNS) was 25.6 µM and the TGI (RXF 393 renal) was 8.86 µM. For the same compound, the TGI (K-562 leukemia) was 7.46 µM and the TGI (SN12C renal) was 15.9 µM.
`Cc1ccc(N=Nc2c(O)c(S(=O)(=O)O)cc3cc(S(=O)(=O)O)ccc23)c(C)c1` showed a TGI (SK-MEL-5 melanoma) of over 100 µM, a TGI (IGROV1 ovarian) of over 100 µM and a TGI (MDA-MB-231 breast) of over 100 µM. For the same compound, the TGI (HL-60(TB) leukemia) was over 100 µM, the TGI (HCT-116 colon) was over 100 µM and the TGI (PC-3 prostate) was over 100 µM. The TGI (HCT-15 colon) was over 100 µM, the TGI (MOLT-4 leukemia) was over 100 µM and the TGI (OVCAR-5 ovarian) was over 100 µM. It also gave a TGI (BT-549 breast) of over 100 µM, a TGI (HOP-92 NSCLC) of over 100 µM and a TGI (UACC-257 melanoma) of over 100 µM. The TGI (KM12 colon) was over 100 µM, the TGI (RPMI-8226 leukemia) was over 100 µM and the TGI (A549 NSCLC) was over 100 µM. It also gave a TGI (SNB-19 CNS) of over 100 µM, a TGI (CAKI-1 renal) of over 100 µM and a TGI (HS 578T breast) of over 100 µM. It also gave a TGI (NCI-H23 lung) of over 100 µM, a TGI (ACHN renal) of over 100 µM and a TGI (SF-268 CNS) of over 100 µM. It also gave a TGI (A498 renal) of over 100 µM, a TGI (SK-MEL-2 melanoma) of over 100 µM and a TGI (786-0 renal) of over 100 µM. The TGI (HT29 colon) was over 100 µM, the TGI (HOP-62 NSCLC) was over 100 µM and the TGI (MCF7 breast) was over 100 µM. The TGI (NCI-H226 lung) was over 100 µM, the TGI (UO-31 renal) was over 100 µM and the TGI (NCI/ADR-RES ovarian) was over 100 µM. The TGI (M14 melanoma) was over 100 µM, the TGI (HCC-2998 colon) was over 100 µM and the TGI (EKVX NSCLC) was over 100 µM. The TGI (SNB-75 CNS) was over 100 µM, the TGI (T-47D breast) was over 100 µM and the TGI (COLO 205 colon) was over 100 µM. It also gave a TGI (OVCAR-3 ovarian) of over 100 µM, a TGI (NCI-H460 lung) of over 100 µM and a TGI (MDA-MB-435) of over 100 µM. For the same compound, the TGI (SW-620 colon) was over 100 µM, the TGI (CCRF-CEM leukemia) was over 100 µM and the TGI (SK-OV-3 ovarian) was over 100 µM. The TGI (SF-539 CNS) was over 100 µM, the TGI (DU-145 prostate) was over 100 µM and the TGI (MDA-N) was over 100 µM. It also gave a TGI (SK-MEL-28 melanoma) of over 100 µM, a TGI (SF-295 CNS) of over 100 µM and a TGI (MALME-3M melanoma) of over 100 µM. The TGI (LOX IMVI melanoma) was over 100 µM, the TGI (OVCAR-4 ovarian) was over 100 µM and the TGI (SR leukemia) was over 100 µM. For the same compound, the TGI (TK-10 renal) was over 100 µM, the TGI (NCI-H522 lung) was over 100 µM and the TGI (UACC-62 melanoma) was over 100 µM. It also gave a TGI (OVCAR-8 ovarian) of over 100 µM, a TGI (U251 CNS) of over 100 µM and a TGI (RXF 393 renal) of over 100 µM. It also gave a TGI (K-562 leukemia) of over 100 µM and a TGI (SN12C renal) of over 100 µM.
